According to PubChem BioAssay (NCI):
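Assay format: 96-well plates, 48-hour exposure. Abbreviation: GI50, concentration required for 50% inhibition of growth. Definition used: TGI = concentration required for complete inhibition of growth.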

Columns and labels:
Test in all cases: growth of human tumour cells (NCI), 48 h
[1] = system: DU-145 prostate
[2] = system: OVCAR-3 ovarian
[3] = system: RPMI-8226 leukemia
[4] = system: SF-295 CNS
[5] = system: NCI-H460 lung
[6] = system: OVCAR-4 ovarian

Row | SMILES | TGI [1] [µM] | TGI [2] [µM] | TGI [3] [µM] | TGI [4] [µM] | TGI [5] [µM] | TGI [6] [µM] | GI50 [2] [µM] | GI50 [3] [µM] | GI50 [5] [µM]
1 | NC1=NN(c2ccccc2)C2(c3ccncc3C(=O)O)C1C(N)=NN2c1ccccc1 (stereo not drawn) | > 100 | > 100 | > 100 | > 100 | > 100 | > 100 |  |  | 
2 | N#CC(C#N)=Cc1ccc(C=C2SC3=C(SCCS3)S2)s1 | > 100 | > 100 | 6.28 | > 100 | > 100 | > 100 |  |  | 
3 | CC(=O)O[C@H]1[C@@H](OC2CCCC2(c2ccccc2)c2ccccc2)O[N+]([O-])=C[C@@]12COCc1cc3c(cc12)OCO3 (stereo partly drawn) | > 100 | 4.71 |  | > 25.9 | 31.5 | 15.1 |  |  | 
4 | CC(=O)N1C(C(=O)NNc2ccccc2)CSC1c1ccccc1 (stereo not drawn) | > 100 | > 100 | > 100 | > 100 | > 100 | > 100 |  |  | 
5 | CCCC(=O)/C=C/S/C=C/C(=O)CCC | 27.1 | 18.7 |  | 66.3 | > 100 | 43.2 |  |  | 
6 | CC(=O)N1CC[N+](C)(CCCCN2c3ccccc3Sc3cc(N=[N+]=[N-])ccc32)CC1 | > 100 | > 100 | > 100 | > 100 | > 100 | > 100 |  |  | 
7 | COc1ccc(C(=O)/C=C/c2ccc(OCC(=O)O)cc2)cc1 | > 100 | > 100 | > 100 | > 100 |  |  |  |  | 
8 | C[C@@H]1OC(=O)C[C@H]2CC(=O)N(CCC3CN(S(=O)(=O)C(F)(F)F)c4ccc(Cc5ccc6c(c5)C(CCN5C[C@H]7[C@@H](CC(=O)O[C@H]7C)CC5=O)CN6S(=O)(=O)C(F)(F)F)cc43)C[C@@H]21 (stereo partly drawn) | > 100 | > 100 | > 100 | > 100 | > 100 | > 100 |  |  | 
9 | COc1cc(-c2c3c([nH]c(=O)c2C#N)-c2cc([N+](=O)[O-])ccc2CCC3)cc(OC)c1OC | > 100 | 46.3 | 52.1 | 33.1 | 67 | > 100 |  |  | 
10 | CC(=O)Nc1ccc(S(=O)(=O)[N-]C2C(=O)c3ccccc3C(=O)C2[n+]2ccccc2)cc1 (stereo not drawn) | > 100 | 32.3 | > 100 | 28.8 | 86.3 | 28.9 |  |  | 
11 | O=C(Nc1nncs1)NS(=O)(=O)n1cnc2ccccc21 | > 100 | > 100 | > 100 | > 100 | > 100 | > 100 |  |  | 
12 | O=C1NC(N/N=C/c2ccccc2)=N/C1=C\c1cccs1 | 56.5 | 33.9 | > 41 | 34.6 | > 100 | > 68.9 |  |  | 
13 | COC(=O)c1cc(-c2ccc(-c3ccc(O)cc3)cc2)cc(-c2ccc(-c3ccc(O)cc3)cc2)c1 |  | 25.6 | 27.5 | 20.2 | 35 | 35.9 |  |  | 
14 | CC(=O)OCC1OC(n2c3c(cc(C#N)c2=S)CCCCCC3)C(OC(C)=O)C(OC(C)=O)C1OC(C)=O (stereo not drawn) | > 100 | > 100 | > 100 | > 100 | > 100 | > 100 |  |  | 
15 | Cc1cc(C)nc(NS(=O)(=O)c2ccc(NNC(=O)c3cccc4c(NNc5ccc(S(=O)(=O)Nc6nc(C)cc(C)n6)cc5)c5ccccc5nc34)cc2)n1 | 36.8 | 66.5 | 64.9 | 88.1 | 51.1 | 68 |  |  | 
16 | O=C1/C(=C/c2ccc(Cl)cc2)N=C(c2ccccc2)N1C1Nc2cc3c(cc2S1)NC(N1C(=O)/C(=C/c2ccc(Cl)cc2)N=C1c1ccccc1)S3 (stereo not drawn) | > 100 | > 100 | > 100 | > 100 | > 100 | > 100 |  |  | 
17 | O=c1c[n+](-c2ccccc2)[nH]o1 | > 100 | > 100 | > 100 | > 100 | > 100 | > 100 |  |  | 
18 | COc1cc(/C=C/c2sc3ccccc3[n+]2C)ccc1N(C)C | 35 | 13 | 16.2 | > 100 | 38 | 40.1 | 3.15 | 3.15 | 13.4
19 | Cc1ccc(S(=O)C[C@@]2(C(F)F)NC(=O)NC2=O)cc1 (stereo partly drawn) | > 100 | > 100 | > 100 | > 100 | > 100 | > 100 |  |  | 
20 | OCCCCn1cc(Cn2ncc3c(SCc4ccccc4)ncnc32)nn1 | > 100 | > 100 | > 100 | > 100 | > 100 | > 100 |  |  | 
21 | COc1cc(C2c3[nH]c4ccc(F)cc4c3C[C@H]3COC(=O)N23)cc(OC)c1O (stereo partly drawn) | 39.2 | 56 | > 100 | 53.8 | 19.8 | 79.7 |  |  | 
22 | O/N=C1/CCCCCC1NO (stereo not drawn) | > 100 | > 100 | > 100 | > 100 | > 100 | > 100 |  |  | 
23 | CC(C)CCNC(=O)c1ccc(CNC(=O)/C=C/c2csc(-c3ccccc3)n2)cc1 | > 100 | > 100 | > 100 | > 100 | > 100 | > 100 |  |  | 
24 | CC(C)/C(Cl)=N\OC(=O)Nc1ccc(F)c([N+](=O)[O-])c1 | 32.8 | 27.2 | 4.87 | 37.9 | 7.89 | 8.99 |  |  | 
25 | C=CCOC(=O)CCCCCCCCCCCCCCCOC(=O)c1c(CCC[C@@H](C)O[Si](C)(C)C(C)(C)C)nc(=O)n2c1CC[C@H]2CC1(CC/C=C\[C@H](CC)O[Si](C(C)C)(C(C)C)C(C)C)OCCO1 | > 100 | > 100 | > 100 | > 100 | > 100 | > 100 |  |  | 
26 | COc1cc(C=Nc2ccc(S(N)(=O)=O)cc2)cc(OC)c1 | > 50 | > 50 | > 50 | > 50 | > 50 | > 50 |  |  | 
27 | CC1C2(C)OC(=N)C(C#N)(C(c3ccco3)O2)C1(C#N)C#N (stereo not drawn) | > 100 | 47.9 |  | > 100 | 44.6 |  |  |  | 
28 | COc1ccc(-c2oc3cc(OC)c(OC)c(OC)c3c(=O)c2OC)cc1OC | > 100 | > 100 |  | > 100 | > 100 | > 100 |  |  | 
29 | O=C(O)CSc1nnc(CCCCCCCCc2nnc(SCC(=O)O)o2)o1 | > 100 |  | > 100 | > 100 | > 100 | > 100 |  |  | 
30 | O=C1C=CC[C@H](/C=C/C[C@@H](O)C[C@H](O)/C=C/c2ccccc2)O1 | 26.3 | 23.7 |  | 29.8 | 35.3 | 28.4 |  |  | 
